Measurements as given in US4702864A, “Analogs of platelet activating factor” (E. I. Du Pont de Nemours and Company, priority 1986, dated 1987).

The compounds below were run on tetradecanoyl phorbol acetate (TPA)-induced edema in murine ear (assay: Topical anti-inflammatory activity, TPA-induced mouse ear edema). Details: in acetone just prior to 1 μg TPA, 4 hours after TPA.
Assay type: in vivo, male CF1 mice
Protocol: Topical application of tetradecanoyl phorbol acetate (TPA) to murine skin results in an inflammatory reaction characterized by edema, a dense cellular infiltration 4-6 hours later, and an epidermal hyperplasia 24 hours following application.
To evaluate the antiinflammatory activity of certain compounds within the scope of the present invention, TPA was applied topically to ear epidermal tissue of male CF1 mice 4-6 weeks old. One μg of TPA in acetone was applied topically to one ear, while acetone only was applied to the contralateral ear of each mouse. Test compounds to be evaluated as antiinflammatory agents were applied to both ears in acetone just prior to application of TPA. Four hours after the application of the TPA, the animals were sacrificed, and 6 mm disks of tissue were excised from each treated ear and weighed. The relative amount of edema was then assessed by determining the difference in mass between control and TPA-treated tissue samples.

Row | SMILES | Ear Volume Reduction (%)
1 | CCCCCCCCCCCCCCCCCCSCC(COP(=O)([O-])OCC[N+](C)(C)C)NC(C)=O (stereo not shown) [Compound 10B, 3-Octadecylthio-2-acetamidophosphatidylcholine] | 10%
2 | CCCCCCCCCCCCCCCCSCC(COP(=O)([O-])OCC[N+](C)(C)C)NC(=O)c1ccccc1 (stereo not shown) [Compound 13CIV] | 57%

The compounds below were run against porcine pancreatic PLA2 (Sus scrofa, UniProt P00592) (assay: Inhibition of porcine pancreatic phospholipase A2 (PLA2)). Details: pH 8.5, 37°, 5 minutes, 14.0 uM substrate; approximation from semilog plot.
Assay type: biochemical
Protocol: Inhibition of porcine pancreatic PLA2 was measured by a modification of the assay used by Hirata et al., Proc. Natl. Acad. Sci. USA 77:533 (1980). The enzyme-substrate reaction was run in a total volume of 0.1 mL with the enzyme at a final concentration of 19 units/mL (0.025 ug protein/mL) which gave approximately 4000-8000 dpm of activity in a buffer containing 25 mM Tris, 25 mM glycylglycine, 25 mM CaCl2 and 0.75 mM EDTA (tetra sodium salt), pH 8.5. Compounds to be tested as inhibitors were added to an aliquot of enzyme and incubated for 2 minutes, and then the substrate, [arachidonyl-1-^14 C] L-1-palmitoyl-2-arachidonyl phosphatidylcholine was added to provide a final concentration of 14.0 uM (80,000 dpm). The reaction was allowed to proceed for five minutes at 37°, and then halted by freezing the mixture in a dry ice-ethanol slurry. The arachidonic acid product was separated from unreacted substrate using silica gel columns.
All reactions were run in duplicate. Compounds to be tested were dissolved in 0.2M Tris-Cl, pH 8.5 or dissolved in DMSO and then diluted with Tris-Cl buffer (maximum DMSO concentration, 7%). An approximation of IC50 (the concentration of compound which inhibits the phospholipase activity by 50 percent) was determined for each compound from a semilog plot of percent inhibition versus the final inhibitor concentration.

Chain of porcine pancreatic PLA2 (P00592 23-146): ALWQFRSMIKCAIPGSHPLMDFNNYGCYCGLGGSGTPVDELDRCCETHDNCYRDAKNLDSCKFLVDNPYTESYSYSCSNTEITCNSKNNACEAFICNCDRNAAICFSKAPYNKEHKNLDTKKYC

Row | IC50 | SMILES
3 | 0.52 µM | CCCCCCCCCCCCCCCCCCSCC(COP(=O)([O-])OCC[N+](C)(C)C)NC(C)=O (stereo not shown) [Compound 10B, 3-Octadecylthio-2-acetamidophosphatidylcholine]
4 | 1.1 µM | CCCCCCCCCCCCCCCCSCC(COP(=O)([O-])OCC[N+](C)(C)C)NC(C)=O (stereo not shown) [Compound 10C]
5 | 9 µM | CCCCCCCCSCC(COP(=O)([O-])OCC[N+](C)(C)C)NC(C)=O (stereo not shown) [Compound 10D]
6 | 98 µM | CCCCCCSCC(COP(=O)([O-])OCC[N+](C)(C)C)NC(C)=O (stereo not shown) [Compound 10E]
7 | 19 µM | CCCCCCCCCCCCCCCCCCSCC(COP(=O)([O-])OCC[N+](C)(C)C)NC(=O)OC (stereo not shown) [Compound 13BII, 3-octadecylthio-2-carbomethoxyamidophosphatidylcholine]
8 | 0.55 µM | CCCCCCCCCCCCCCCCCCSCC(COP(=O)([O-])OCC[N+](C)(C)C)NC(=O)CCCCCCCCCCCCCCCCC (stereo not shown) [Compound 13BI]
9 | 18 µM | CCCCCCCCCCCCCCCCSCC(COP(=O)([O-])OCC[N+](C)(C)C)NC(=O)OC (stereo not shown) [Compound 13CII]
10 | 1.4 µM | CCCCCCCCCCCCCCCCSCC(COP(=O)([O-])OCC[N+](C)(C)C)NC(=O)c1ccccc1 (stereo not shown) [Compound 13CIV]

What follows are compounds tested on spontaneous hypertensive rat (SHR) (assay: Antihypertensive activity in the spontaneous hypertensive rat (SHR), intravenous). Details: Rattus norvegicus, anesthetized SHR, cumulative dose schedule, aqueous 0.25% methylcellulose, read-out: ED30 (dose of compound producing a reduction in mean blood pressure of 30 mm Hg).
Assay type: in vivo
Set-up: key to Blood pressure response: ++: Pronounced decrease in blood pressure (>50 mm Hg); +: Moderate decrease in blood pressure (35-50 mm Hg); ±: Threshold decrease in blood pressure (25-35 mm Hg); NE: No effect observed
Protocol: In this procedure, anesthetized rats were dosed intravenously with graded dose levels the test compound on a cumulative dose schedule. The test compound was administered in an aqueous 0.25% methylcellulose vehicle at a volume to body weight ratio of 1 mL/kg. Arterial blood pressure was continuously recorded directly through an arterial cannula and a polygraph. That dose of compound producing a reduction in mean blood pressure of 30 mm Hg, or ED30, was then determined. In this manner, an ED30 of 2.00 mg/kg was determined for compound 13BII.
The antihypertensive activity of other compounds within the scope of the present invention was determined by methods substantially similar to those reported in Example 2, above, except that intravenous dosage levels of 2 and 12 mg/kg were employed. The designation "prolonged" indicates a hypotensive response lasting from 15-30 minutes. The following designations are employed to indicate the magnitude of hypotensive response: […]

Row | SMILES | ED (30 mm Hg)
11 | CCCCCCCCCCCCCCCCCCSCC(COP(=O)([O-])OCC[N+](C)(C)C)NC(=O)OC (stereo not shown) [Compound 13BII, 3-octadecylthio-2-carbomethoxyamidophosphatidylcholine] | 2 mg/kg

Same assay, conditions: SHR, 2 mg/kg

Row | SMILES | Blood pressure response
12 | CCCCCCCCCCCCCCCCCCSCC(COP(=O)([O-])OCC[N+](C)(C)C)NC(C)=O (stereo not shown) [Compound 10B, 3-Octadecylthio-2-acetamidophosphatidylcholine] | ++ (Pronounced decrease in blood pressure (>50 mm Hg))
13 | CCCCCCCCSCC(COP(=O)([O-])OCC[N+](C)(C)C)NC(C)=O (stereo not shown) [Compound 10D] | NE
14 | CCCCCCCCCCCCCCCCCCSCC(COP(=O)([O-])OCC[N+](C)(C)C)NC(=O)OC (stereo not shown) [Compound 13BII, 3-octadecylthio-2-carbomethoxyamidophosphatidylcholine] | ± (Threshold decrease in blood pressure (25-35 mm Hg))
15 | CCCCCCCCCCCCCCCCSCC(COP(=O)([O-])OCC[N+](C)(C)C)NC(=O)OC (stereo not shown) [Compound 13CII] | ++ (Pronounced decrease in blood pressure (>50 mm Hg))
16 | CCCCCCCCCCCCCCCCSCC(COP(=O)([O-])OCC[N+](C)(C)C)NC(=O)c1ccccc1 (stereo not shown) [Compound 13CIV] | NE

Same assay, conditions: SHR, 12 mg/kg

Row | SMILES | Blood pressure response
17 | CCCCCCCCSCC(COP(=O)([O-])OCC[N+](C)(C)C)NC(C)=O (stereo not shown) [Compound 10D] | ++ (Pronounced decrease in blood pressure (>50 mm Hg))
18 | CCCCCCCCCCCCCCCCCCSCC(COP(=O)([O-])OCC[N+](C)(C)C)NC(=O)OC (stereo not shown) [Compound 13BII, 3-octadecylthio-2-carbomethoxyamidophosphatidylcholine] | ++ (Pronounced decrease in blood pressure (>50 mm Hg))
19 | CCCCCCCCCCCCCCCCSCC(COP(=O)([O-])OCC[N+](C)(C)C)NC(=O)c1ccccc1 (stereo not shown) [Compound 13CIV] | ± (Threshold decrease in blood pressure (25-35 mm Hg))
